Results: US12435087B2, “Modulators of DCN-1 and methods of use thereof” (Cellarity, Inc., priority 2023, dated 2025)

Target: DCN1 protein (Homo sapiens (Human), UniProt Q96GG9)
Assay: Intact protein MS analysis with the RapidFire-TOF system (covalent adduct formation)
Type: binding
Settings: 400 nM DCN1, incubated at room temperature for 3 hours
Outline: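 Tag-free His-TEV-DCN1 expressed in E. coli at 400 nM in 25 mM Tris-HCl, 200 mM NaCl, 1 mM DTT, incubated with 11 compound concentrations at room temperature for 3 h unless otherwise specified. Quenched with 0.2% formic acid; intact-protein RapidFire Q-TOF MS, deconvoluted to detect parent and compound-adduct masses.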

Sequence of DCN1 protein (Q96GG9 whole entry): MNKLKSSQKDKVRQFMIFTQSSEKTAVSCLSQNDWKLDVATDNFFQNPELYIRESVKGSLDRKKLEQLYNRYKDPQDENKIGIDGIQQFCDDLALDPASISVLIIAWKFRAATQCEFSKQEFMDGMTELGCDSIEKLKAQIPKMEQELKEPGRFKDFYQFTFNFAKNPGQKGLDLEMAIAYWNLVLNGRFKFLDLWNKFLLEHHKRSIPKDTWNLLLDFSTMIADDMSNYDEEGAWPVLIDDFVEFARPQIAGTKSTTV

SMILES: C/C=C(\CN1CCN(C2COC2)CC1)C(=O)Nc1cccc([C@@H]2c3cnn(-c4ccccc4)c3N(CC)C(=O)[C@H]2NC(=O)c2csc(C(F)(F)F)n2)c1 [Compound I-234, N-((4R,5S)-7-ethyl-4-(3-((E)-2-((4-(oxetan-3-yl)piperazin-1-yl)methyl)but-2-enamido)phenyl)-6-oxo-1-phenyl-4,5,6,7-tetrahydro-1H-pyrazolo[3,4-b]pyridin-5-yl)-2-(trifluoromethyl)thiazole-4-carboxamide]
- Emax: 80 to 100%

SMILES: C=C(CN1CCOCC1)C(=O)Nc1cccc([C@@H]2c3c(C)nn(-c4ccccc4)c3N(CC)C(=O)[C@H]2NC(=O)c2cccc(C(F)(F)F)c2)c1 [Compound I-2, N-((4R,5S)-7-ethyl-3-methyl-4-(3-(2-(morpholinomethyl)acrylamido)phenyl)-6-oxo-1-phenyl-4,5,6,7-tetrahydro-1H-pyrazolo[3,4-b]pyridin-5-yl)-3-(trifluoromethyl)benzamide]
- Emax: 80 to 100%
